From PubChem BioAssay (NCI)
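Cells were grown in 96-well plates and exposed to each compound for 48 hours at five concentrations; endpoints were interpolated linearly between bracketing concentrations, or set to the highest concentration if not reached. TGI: total growth inhibition.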

How the values were obtained:
Assay in all cases: NCI tumour cell line growth inhibition, 48 h
CCRF-CEM leukemia = tested on: CCRF-CEM leukemia
HCT-15 colon = tested on: HCT-15 colon
HL-60(TB) leukemia = tested on: HL-60(TB) leukemia
LOX IMVI melanoma = tested on: LOX IMVI melanoma
MALME-3M melanoma = tested on: MALME-3M melanoma
MOLT-4 leukemia = tested on: MOLT-4 leukemia
NCI-H23 lung = tested on: NCI-H23 lung
NCI-H460 lung = tested on: NCI-H460 lung
NCI/ADR-RES ovarian = tested on: NCI/ADR-RES ovarian
OVCAR-4 ovarian = tested on: OVCAR-4 ovarian
PC-3 prostate = tested on: PC-3 prostate
RXF 393 renal = tested on: RXF 393 renal
SK-MEL-28 melanoma = tested on: SK-MEL-28 melanoma
SK-MEL-5 melanoma = tested on: SK-MEL-5 melanoma
SR leukemia = tested on: SR leukemia
UACC-62 melanoma = tested on: UACC-62 melanoma
UO-31 renal = tested on: UO-31 renal
MDA-MB-435 = tested on: MDA-MB-435
RPMI-8226 leukemia = tested on: RPMI-8226 leukemia
T-47D breast = tested on: T-47D breast

SMILES	TGI (CCRF-CEM leukemia) [µM]	TGI (HCT-15 colon) [µM]	TGI (HL-60(TB) leukemia) [µM]	TGI (LOX IMVI melanoma) [µM]	TGI (MALME-3M melanoma) [µM]	TGI (MOLT-4 leukemia) [µM]	TGI (NCI-H23 lung) [µM]	TGI (NCI-H460 lung) [µM]	TGI (NCI/ADR-RES ovarian) [µM]	TGI (OVCAR-4 ovarian) [µM]	TGI (PC-3 prostate) [µM]	TGI (RXF 393 renal) [µM]	TGI (SK-MEL-28 melanoma) [µM]	TGI (SK-MEL-5 melanoma) [µM]	TGI (SR leukemia) [µM]	TGI (UACC-62 melanoma) [µM]	TGI (UO-31 renal) [µM]	TGI (MDA-MB-435) [µM]	TGI (RPMI-8226 leukemia) [µM]	TGI (T-47D breast) [µM]
Cn1c(=O)n2c(-c3ccccc3)c(-c3ccccc3)n2c1=O	> 100	> 100	> 100	> 100	> 100	> 100	> 100	> 100	> 100	> 100	> 100	> 100	> 100	> 100	> 100	> 100	> 100			
CC(=O)O[C@H]1CC[C@@]2(C)C(=C[C@H](c3ccc(O)cc3)[C@H]3[C@@H]4CC[C@H](OC(C)=O)[C@@]4(C)CC[C@@H]32)C1	56.1	24.8	58	27.1	34.2	45.3	53.7	40.6	31.9	41	46.2	51.1		23.8		23	76.4	62.6	45.8	
O=C1C2=Cc3ccccc3OC2(O)Oc2ccc(O)cc21 (stereo unspecified)	44.4	> 100		> 100	> 100	> 100	> 100		> 100		> 100	> 100	> 100	> 100		> 100		> 100	> 100	> 100
CC(C)(C)OC(=O)CC(NC(=O)OC(C)(C)C)C(=O)NC(C(=O)O)C(O)c1ccccc1 (stereo unspecified)	> 100	> 100		> 100	> 100	> 100	> 100	> 100	> 100	> 100	> 100	> 100	> 100	> 100		> 100	> 100	> 100	> 100	> 100
CCOC(=O)N/N=C(\Cc1ccc([N+](=O)[O-])cc1)OCC	> 100	> 100		> 100		> 100	> 100		> 100	> 100	> 100	> 100		> 100	> 100	> 100	> 100	> 100	> 100	
COC(=O)c1cc(C)ccc1C1CN=NC12Cc1cccc(C)c1C2=O (stereo unspecified)	99	> 100	32.8	53	67.5	54.7	> 100	72.3	77.9	> 100		> 100	> 100	31.9	> 100		> 100	61.8	54.9	35.6
CCOC(=O)C(C(=O)OCC)=C1N[C@H](C(=O)OCC)CS1	> 100	> 100	> 100	> 100	> 100	> 100	> 100	> 100		> 100		> 100	> 100	> 100	> 100	> 100	> 100		> 100	
NC(=O)NC1=NC(Cc2ccccc2)C(=O)N1Cc1ccccc1 (stereo unspecified)	> 100	> 100	> 100	> 100		> 100	> 100	> 100		> 100		> 100	> 100	> 100	> 100	> 100	> 100		> 100	
COC(=O)c1ccc(COC(=O)N2C=CCC2C(=O)O)cc1 (stereo unspecified)		> 100			> 100	> 100	> 100	> 100	> 100		> 100	> 100	> 100	> 100	> 100	> 100	> 100	> 100	> 100	
CC(=O)OC1CC2C(C)(C)C(=O)C=C[C@]2(C)C2CCC3(C)C(c4ccoc4)[C@@H](O)[C@H]4O[C@]43[C@]12C (stereo partly specified)	54	31.2	46.7	31.3	51.7	88.8	34.4	36.5		38.8		35.5	40.5	34.2	41.4	32.5	31.8		67.1	
CC1C2(C)OC(=N)C(C#N)(C(C)O2)C1(C#N)C#N (stereo unspecified)	51.3	28.8	41.1	41.4	62.3	> 100	86.8	42.8	> 100		> 100	35.7	88.6	25.8		43.8	> 100			> 100
NCCCCN(CCCN)Cc1ccc2ccccc2c1	> 100	> 100	> 100	> 100	> 100	> 100	> 100	55.2	> 100	> 100		> 100	> 100	> 100		> 100	71	> 100	> 100	> 100
C/C=C1\CNC1C(=O)O (stereo unspecified)	> 100	> 100	> 100	> 100	> 100		> 100	> 100	> 100	> 100	> 100		> 100	> 100		> 100	> 100	> 100	> 100	
CC(=O)c1ccc(NC(=O)C(=O)C(C(=O)c2ccc(Cl)c(Cl)c2)C2OC(=O)c3ccccc32)cc1 (stereo unspecified)	> 100	34.7	> 100	32.6	24.9	> 100	32.2	33.5		> 100		17.4			> 100	33.7	> 100			
O=Nc1sc(=N\O)/c(=N/O)sc1NO	> 100	> 100	> 100	> 100	> 100	> 100	> 100	> 100	> 100	> 100	> 100	> 100	> 100	> 100	> 100	> 100	> 100	> 100	> 100	
CC1=CC(=O)C(=CN2C(=O)/C(=C\c3cccnc3)NC2=S)C(=O)O1		> 100	> 100	> 100		> 100	> 100	> 100	> 100	> 100	> 100		> 100	> 100			> 100	> 100		> 100
NC(=O)CCC(CCC(N)=O)(CCC(N)=O)[N+](=O)[O-]		> 100	> 100		> 100	> 100	> 100	> 100	> 100		> 100	> 100		> 100		> 100	> 100	> 100	> 100	> 100
CC(C)[Si](OC1=C(C(=O)N(C)c2ccccc2Cl)CCCCC1)(C(C)C)C(C)C		> 100		> 100	> 100	> 100	> 100	> 100	> 100	> 100		> 100	> 100	> 100			> 100	> 100	> 100	> 100
CN(C)CCNC1=CC(=O)c2nc3ccccc3c3ccnc1c23	21.3	20.3	16.8	5.94	16.2	13.6	18.9	9.91	28.5	16.6	17.2		23.5		9.05	18.2	23.8	20	55.5	
c1ccc(CN2CCCCC(Sc3ccccc3)CC2)cc1 (stereo unspecified)	43.8	33.5	46.3	30.6	38.2	50.7	64.3	42.5		> 100			> 100	34.1	37.7	> 100	28.8		38.9	
N#C/C(C(=S)Nc1ccccc1)=C(/N)N1CCCC1	> 100	> 100	> 100	> 100	> 100	> 100	> 100	> 100	> 100	> 100	> 100	> 100	> 100	> 100	> 100	> 100	> 100	> 100	> 100	
C=C(Br)C(C)(Br)CCC(Br)C(C)(C)Br (stereo unspecified)	63.5	> 100	62.3	31	81.8	94.2	> 100	> 100		> 100		> 100	46.3	> 100	54.7	45.1	> 100		58.2	
CCCCCNC(=O)c1c(O)[nH]c(=S)[nH]c1=O	> 100	> 100	> 100	> 100	> 100	> 100	> 100	> 100		> 100			> 100	> 100	> 100	> 100			> 100	
CN(C)C(=S)N/N=C(\C(=N/NC(=S)N(C)C)c1ccccn1)c1ccccn1		31.6		> 100	33.9		> 53.2	22.7	62.1	26.8	24.4	18.1	34.4	24.5		32.8	21.6	26	> 100	8.79
CC(C)n1c(=O)[nH]n(-c2ccccc2)c1=O	> 100	> 100	> 100	> 100	> 100	> 100	> 100	> 100	> 100	> 100	> 100	> 100	> 100	> 100	> 100	> 100	> 100	> 100	> 100	
Cc1cc(O)c(C=NC(=S)c2ccccc2)c(=O)o1		> 100		> 100		> 100	> 100	> 100	> 100	> 100	> 100		> 100	> 100		> 100	> 100	> 100		> 100
CC1=CC(=O)c2c(C=O)c(O)c(O)c(C(C)C)c2C1=O	60.1	> 100	> 79.5	27.6	68.2	66.3	> 85.5	> 74.1		23.8		20.8	> 100	65	> 74.4	56.4	> 56.8		> 62.8	
CN(C)C1(N(C)C)Oc2c(c(=O)n(C)c(=O)n2C)C(c2ccccc2Br)C1(F)F (stereo unspecified)	> 100	> 100		> 100		> 100	> 100	> 100	> 100	> 100	> 100	> 100	> 100	> 100		> 100	> 100	> 100	> 100	> 100
